Results from patent US7902197B2, “Pyrrolopyrazine kinase inhibitors” (Roche Palo Alto LLC, priority 2008, dated 2011).

Assays:
[1] = target: JAK2: Recombinant human kinase domain (Homo sapiens, UniProt O60674); experiment: Determination of IC50 of Janus Kinase (JAK) inhibition, radioactive end-point 33P-ATP assay, JAK2; type: biochemical; details: 1 nM JAK2, ATP 1.5 uM, peptide 50 uM, 20 minutes; read-out: IC50 h-jak2-sf21-c
Excerpt: (§1) Determination of IC50 of Janus Kinase (JAK) Inhibition: […]

[2] = target: JAK3: Recombinant human kinase domain (Homo sapiens, UniProt P52333); experiment: Determination of IC50 of Janus Kinase (JAK) inhibition, radioactive end-point 33P-ATP assay, JAK3; type: biochemical; details: 0.5 nM or 0.2 nM JAK3, ATP 1.5 uM, peptide 50 uM, 20 minutes; read-out: IC50 h-jak3-sf21-c
Excerpt: as §1

Sequence of JAK3: Recombinant human kinase domain (P52333 822-1111 limits assumed): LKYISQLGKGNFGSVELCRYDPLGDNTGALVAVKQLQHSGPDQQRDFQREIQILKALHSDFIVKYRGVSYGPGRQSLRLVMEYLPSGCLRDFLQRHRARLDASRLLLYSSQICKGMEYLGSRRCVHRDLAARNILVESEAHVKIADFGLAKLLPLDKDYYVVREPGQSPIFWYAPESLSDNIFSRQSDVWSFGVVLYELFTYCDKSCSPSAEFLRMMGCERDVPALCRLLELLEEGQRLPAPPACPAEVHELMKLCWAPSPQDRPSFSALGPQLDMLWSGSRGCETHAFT
Sequence of JAK2: Recombinant human kinase domain (O60674 849-1124 limits assumed): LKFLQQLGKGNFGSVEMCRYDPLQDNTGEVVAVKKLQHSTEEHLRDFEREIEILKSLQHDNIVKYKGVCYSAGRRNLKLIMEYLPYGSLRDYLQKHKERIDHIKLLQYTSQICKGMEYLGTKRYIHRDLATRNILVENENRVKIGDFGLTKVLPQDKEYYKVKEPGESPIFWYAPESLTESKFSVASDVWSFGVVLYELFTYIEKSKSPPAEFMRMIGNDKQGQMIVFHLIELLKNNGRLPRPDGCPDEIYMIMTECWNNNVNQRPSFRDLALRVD

SMILES | IC50 [1] | IC50 [2] | melting point
CC(C)NC(=O)c1c[nH]c2ncc(N(C)C3CCCC3)nc12 [Compound I-1, 2-(Cyclopentyl-methyl-amino)-5H-pyrrolo[2,3-b]pyrazine-7-carboxylic acid isopropylamide] | 129 nM | 59.2 nM | 277 to 278 °C
CC(C)(C)C(=O)c1cnc2[nH]cc(C(=O)C(C)(C)C)c2n1 [Compound I-2, 1-[7-(2,2-Dimethyl-propionyl)-5H-pyrrolo[2,3-b]pyrazin-2-yl]-2,2-dimethyl-propan-1-one] |  |  | 188 to 198 °C
CC(C)(C)C(=O)c1c[nH]c2ncc(C(=O)NC3CCCC3)nc12 [Compound I-15, 7-(2,2-Dimethyl-propionyl)-5H-pyrrolo[2,3-b]pyrazine-2-carboxylic acid cyclopentylamide] |  |  | 237.9 to 241.5 °C
CN1CCN(c2ccc(Nc3cnc4[nH]cc(C(=O)C(C)(C)C)c4n3)cc2)CC1 [Compound I-34, 2,2-Dimethyl-1-{2-[4-(4-methyl-piperazin-1-yl)-phenylamino]-5H-pyrrolo[2,3-b]pyrazin-7-yl}-propan-1-one] |  | 471 nM | 
CN1CCN(c2cccc(Nc3cnc4[nH]cc(C(=O)C(C)(C)C)c4n3)c2)CC1 [Compound I-35, 2,2-Dimethyl-1-{2-[3-(4-methyl-piperazin-1-yl)-phenylamino]-5H-pyrrolo[2,3-b]pyrazin-7-yl}-propan-1-one] |  | 498 nM | 
